Results reported in patent US5686458A, “Quinazoline deriviates for treating peptic ulcer” (Yuhan Corporation, priority 1992, dated 1997).

Legend:
[1] = system: gastric secretion stimulated by pentagastrin; assay: Inhibition of gastric secretion stimulated by pentagastrin (Experiment 3-2); assay type: in vivo, Sprague-Dawley male rats; details: intravenous; for ED50: Rattus norvegicus
[2] = target: T1, H^+ /K^+ ATPase (proton pump), gastric vesicles (Sus scrofa, UniProt P19156); assay: Determination of H+/K+ ATPase activity, Lineweaver-Burk kinetics versus K+ (Experiment 4-2); assay type: biochemical, pig; details: for Competitive inhibition with K+ at the K+ binding site of proton pump: Lineweaver-Burk plot, KCl 0.1 to 30 mM
T1 construct: Gastric vesicles were prepared from pig stomach; from tissue; host or cells: pig stomach, lyophilized gastric vesicles
T1 sequence (P19156 2-1034 limits assumed): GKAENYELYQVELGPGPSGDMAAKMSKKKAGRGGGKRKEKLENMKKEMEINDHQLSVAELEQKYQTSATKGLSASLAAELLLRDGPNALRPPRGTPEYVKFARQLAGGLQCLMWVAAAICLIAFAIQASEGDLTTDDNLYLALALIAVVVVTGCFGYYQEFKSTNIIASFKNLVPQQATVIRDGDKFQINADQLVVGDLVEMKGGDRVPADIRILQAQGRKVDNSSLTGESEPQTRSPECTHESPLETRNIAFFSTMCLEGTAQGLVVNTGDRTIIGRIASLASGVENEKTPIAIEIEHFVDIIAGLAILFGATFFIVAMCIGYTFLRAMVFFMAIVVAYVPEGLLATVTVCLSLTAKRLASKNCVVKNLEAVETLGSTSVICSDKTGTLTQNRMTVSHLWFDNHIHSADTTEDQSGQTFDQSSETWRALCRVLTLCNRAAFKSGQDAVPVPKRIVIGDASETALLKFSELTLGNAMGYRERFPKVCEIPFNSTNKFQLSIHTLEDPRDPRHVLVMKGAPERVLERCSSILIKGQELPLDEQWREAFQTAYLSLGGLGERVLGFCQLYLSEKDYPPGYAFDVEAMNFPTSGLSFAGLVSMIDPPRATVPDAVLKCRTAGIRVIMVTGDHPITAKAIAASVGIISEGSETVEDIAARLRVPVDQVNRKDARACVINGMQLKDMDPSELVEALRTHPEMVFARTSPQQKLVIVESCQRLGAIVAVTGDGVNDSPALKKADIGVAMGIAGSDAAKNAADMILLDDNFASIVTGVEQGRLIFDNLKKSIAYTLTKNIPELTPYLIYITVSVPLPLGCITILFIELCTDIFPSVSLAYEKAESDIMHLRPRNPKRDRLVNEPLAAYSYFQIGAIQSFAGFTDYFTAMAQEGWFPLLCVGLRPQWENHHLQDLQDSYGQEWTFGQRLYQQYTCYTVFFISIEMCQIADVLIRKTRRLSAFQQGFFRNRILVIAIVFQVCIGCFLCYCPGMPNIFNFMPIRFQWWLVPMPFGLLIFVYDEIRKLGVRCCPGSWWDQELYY
T1 sequence (P18434 whole entry partner): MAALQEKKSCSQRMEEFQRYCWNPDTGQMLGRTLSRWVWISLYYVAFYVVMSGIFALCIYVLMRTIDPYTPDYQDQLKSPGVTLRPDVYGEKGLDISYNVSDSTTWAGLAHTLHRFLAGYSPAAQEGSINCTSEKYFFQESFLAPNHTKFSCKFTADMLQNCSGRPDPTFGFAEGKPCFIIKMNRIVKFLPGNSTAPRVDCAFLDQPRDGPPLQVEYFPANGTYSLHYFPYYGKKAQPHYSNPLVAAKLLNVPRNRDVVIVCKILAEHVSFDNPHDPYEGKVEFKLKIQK
Description: Gastric vesicles were prepared from pig stomach by the method described in Saccomani G., et al., J. Biol. Chem. 250, 4802-4809 (1975). The vesicles were lyophilized and kept at -70° C. The protein content was determined by the method of Lowry et al., using bovine serum albumin as standard[see Lowry, O. H., Rosebrough, N. J. and Randall, R. J., J. Biol. Chem. 193, 265-275 (1951)].
Test tubes were divided into 4 groups, each having 3 test tubes. As a control group, group 1 was added with the 10 μl of DMSO. Groups 2, 3 and 4 were administered with the compound prepared in example 34 whose final concentration are 0.17 μM, 0.33 μM and 0.67 μM, respectively. Each group was further divided into 3 small groups, in which enzymes were activated by ATP; ATP and Mg^++; and ATP, Mg^++ and K^+, respectively.
To all of the test tubes, were added 100 μl of lyophilized vesicles prepared at the concentration of 25 μg protein/ml and then 90 μl of 5 mM Pipes/Tris buffer pH 7.0. The compound prepared in Example 34 was added to each Group until the final concentration thereof became 0.17, 0.33 or 0.67 μM, respectively, They were preincubated for 15 minutes.
50 μl of ATP(3 mM) was added to each of the four Groups and the 50 μl of MgCl2 (2 mM) was added only to the 2nd and 3rd small groups of all Groups. Further, to the 3rd small groups of all Groups, were added 50 μl of KCl solution of various concentrations(from 0.1 mM to 30 mM) and then 150μl of Pipes/Tris buffer of pH 7.0. To the rest small groups, Pipes/Tris buffer of pH 7.0 was added until the volume became the same as that of the 3rd small group.
The test tube's were incubated at 37° C. for 30 minutes and then the reaction was terminated by adding 25% cold trichloroacetic acid solution. They were centrifuged by means of a microcentrifuge and the supernatant was taken up for the measurement of the released inorganic phosphate content by an automatic analyzer(CIBA CORNING, Express 550).
In accordance with the same procedures as above, except that 15 and 30 μm of omeprazole and 0.75, 1.5 and 3.0 μm of SK&F96067 were used as comparative substances, released inorganic phosphate content was measured.
The released inorganic phosphate contents of the three small groups were considered as the activity of H^+ /K^+ ATPase at each of the concentrations employed. The specific activity of H^+ /K^+ ATPase was calculated from the following equation:
Specific activity=(A-C)-(B-C) . . . (V)
A is the activity of enzyme activated by ATP, Mg^++ and , K^+ ;
B is the activity of enzyme activated by ATP and M^++ and
C is the activity of enzyme activated by ATP.
The specific activity, thus calculated, of Groups 1, 2, 3 and 4 which employed DMSO and the compound of Example 34 at 3 different concentrations were then plotted with respect to the concentration of KCl in FIG. 1 according to the method of Lineweaver-Burk, wherein .box-solid., .quadrature. and .largecircle. represent the respective concentrations of the compound of Example 34 of 0.67 μM, 0.33 μM and 0.17 μM; and .oval-solid. represents concentration of the DMSO compound. FIG. 2 depicts the Lineweaver-Burk plot of the specific activities obtained from SK&F96067, wherein .box-solid., .quadrature. and .largecircle. represent its respective concentrations of 3.0 μM, 1.5 μM, 0.75 μM; and .oval-solid. represents concentration of the DMSO compound. FIG. 3 illustrates the Lineweaver-Burk plot of the specific activities obtained from omeprazole, wherein .oval-solid. and .quadrature. represent its concentrations of 15 μM and 30 μM; and .largecircle. represents the concentration of DMSO.

Compound | The gastric secretion inhibition ([1]; 0.3 mg/kg) [%] | The gastric secretion inhibition ([1]; 0.5 mg/kg) [%] | The gastric secretion inhibition ([1]; 1.0 mg/kg) [%] | ED50 [1] [mg/kg] | Inhibition overcome by increasing the concentration of KCl ([2]; 15 and 30 μM) | Reaction speed in comparison with the control values ([2]; 15 and 30 μM) | Competitive inhibition with K+ at the K+ binding site of proton pump [2] | The gastric secretion inhibition ([1]; 3.0 mg/kg) [%] | The gastric secretion inhibition ([1]; 5.0 mg/kg) [%] | Ki ([2]; Lineweaver-Burk, versus K+, pH 7.0) [µM]
COc1ccc2[nH]c([S+]([O-])Cc3ncc(C)c(OC)c3C)nc2c1 (stereo not shown) [Omeprazole, omeprazole, reference compound] | 5.0 | 63.1 | 114.3 | 0.47 | not overcome by increasing the concentration of KCl | greatly reduced | did not inhibit competitively | – | – | –
COc1cccc2c(N3CCc4ccccc4C3C)nc(Nc3ccc(F)cc3C)nc12.Cl (stereo not shown) [Example 34, 8-Methoxy-2-(4-Fluoro-2-Methyl-Phenylamino)-4-(1-Methyl-1,2,3,4-Tetrahydroisoquinoline-2-Yl)Quinazoline Hydrochloride] | – | – | 41.2 | 1.31 | – | – | inhibited competitively with K^+ | 77.0 | 110.2 | 0.04
